Source: patent publication US11833238B2, “Topical testosterone (T) for promoting hair growth-containing formulations” (priority 2012, dated 2023)

How the values were obtained:
eyelash hair growth = assay: appearance of lashes and hair around the eyes of glaucoma patients administering bimatoprost in only one eye (slit lamp biomicroscope); assay type: in vivo, human; settings: 0.03% ophthalmic solution, more than 3 months, treated vs control eye
Method: A study is initiated to systematically evaluate the appearance of lashes and hair around the eyes of patients who are administering bimatoprost in only one eye. The study involves 10 subjects, 5 male, 5 female, average age 70 years, (ranging from 50-94 years). All patients have glaucoma. Each subject is treated daily by the topical application of one drop of bimatoprost at a dosage of 1.5 µg/ml/eye/day (0.03%, by weight, ophthalmic solution, sold under the names Lumigan® and Latisse® by Allergan, Irvine, Calif., U.S.A.) to the region of one eye by instilling the drop onto the surface of the eye. The region of the fellow control eye is not treated with bimatoprost and served as a control.
In the course of treatment with eye drops, there is typically spontaneous tearing, and excess fluid from the drops and associated tears gathers at the lid margins. In the course of wiping the drug containing fluid from the lid margins and adjacent lid, a thin film of the fluid is routinely spread to contact the adjacent skin of the lid area.
The study is limited to subjects who have administered bimatoprost to one eye for more than 3 months. The mean duration of exposure to bimatoprost prior to assessing the parameter of lash growth between the control and study eye is 129 days (range 90-254 days). Observations are made under high magnification at the slit lamp biomicroscope. Documentation of differences between the control and treatment areas is accomplished using a camera specially adapted for use with the slit lamp biomicroscope. The results of the observations are as follows: Length of lashes: Increased length of eyelashes is regularly observed on the side treated with bimatoprost. The difference in length varies from approximately 10% to as much as 30%. […] In areas where there are a large number of lashes in the control eye, the increased number of lashes in the bimatoprost-treated eye gave the lashes on the treated side a more thickly matted overall appearance. […] These long, thick lash-like hairs were present in the central portion of the lids of several patients in a linear arrangement just above the lash line. Hairs are present at similar locations in the control eyes but are by contrast thinner or more fine in appearance, have less luster and pigment and are more flat against the skin of the lid typical of vellus or intermediate hairs. In several patients, lash-like terminal hairs grow luxuriantly in the medial canthal area in the treated eye. In the corresponding control eye, vellus hairs are seen at the same location. Lash-like hairs are also present in the lateral canthal area of the treated eye but not the control eye in several subjects. […]

[1] = powder; cited from earlier work

With `CCNC(=O)CCC/C=C\C[C@@H]1[C@@H](/C=C/[C@@H](O)CCc2ccccc2)[C@H](O)C[C@@H]1O` [bimatoprost, (Z)-7-[(1R,2R,3R,5S)-3,5Dihydroxy-2-[(1E,3S)-3-hydroxy-5-phenyl-1-pentenyl]cyclopentyl]-5-N-ethylheptenamide] as the compound, how does the “Auxiliary lash-like hair growth” value (eyelash hair growth) read?
Its value is “apparent increase in lash-like hair in transitional areas adjacent to areas of normal lash distribution”.

What about the Number of lashes (eyelash hair growth) of the same compound?
The Number of lashes was “Increased numbers of lashes are observed in the treated eye of each patient”.

And the “Perpendicular angulation of hairs” value (eyelash hair growth)?
Its value is “leave the surface of the skin at a more acute angle”.

And the “growth of vellus hair on lids” value (eyelash hair growth)?
Its value is “vellus hairs are increased in number, appear more robust and are much longer and thicker in treated than in control eyes”.

What about the “solubility in ethyl alcohol” value [1] of the same compound?
Its value is “very soluble”.

What about the “solubility in methyl alcohol” value [1] of the same compound?
The value was “very soluble”.

What about the solubility in water [1] of the same compound?
The solubility in water was “slightly soluble”.
